Experimental data: patent US8569336B2, “Compounds for the treatment of inflammatory disorders” (priority 2008, dated 2013)
Read-outs that look alike come from different tables or passages of the source.

Experiments:
[1] = tested on: TNF-α production from human whole blood; assay: Inhibition of TNF-α production from human whole blood (hWBA), LPS stimulated, ELISA; assay type: cell-based; conditions: TNF-α by ELISA, read-out: hWBA (IC50)
[2] = Area under the curve determinations of plasma levels in rats (rrAUC), oral 10 mg/kg; assay type: in vivo; conditions: for AUC: rat, read-out: RR AUC (rapid rat AUC, rrAUC)
[3] = target: T1, purified catalytic domain of recombinant human TACE (rhTACEc) (Homo sapiens, UniProt P78536, N452Q/S266A); assay: TACE kinetic assay: cleavage of internally quenched peptide substrate TNF-FRET 2 (Ki); assay type: biochemical; conditions: TNF-FRET 2 substrate
T1 construct: 6xHis (C); made in house; host or cells: baculovirus/Hi5 insect cells

[4] = Homo sapiens, 3.5 h, human whole blood diluted 1:1, LPS stimulated, 3.5 h
[5] = Homo sapiens, LPS-stimulated human whole blood
[6] = Homo sapiens, human whole blood diluted 1:1, LPS stimulated
[7] = plasma, blood collected 0.5-6 h post-dosing

T1 sequence (P78536 215-477 S266A/N452Q): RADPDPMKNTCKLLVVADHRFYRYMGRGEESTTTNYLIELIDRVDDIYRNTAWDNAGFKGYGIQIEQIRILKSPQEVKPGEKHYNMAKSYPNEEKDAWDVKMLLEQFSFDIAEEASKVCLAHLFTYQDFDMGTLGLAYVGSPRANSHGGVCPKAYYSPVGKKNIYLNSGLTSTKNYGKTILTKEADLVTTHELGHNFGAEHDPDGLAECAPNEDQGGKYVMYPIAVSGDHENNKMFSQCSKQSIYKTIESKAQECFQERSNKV

SMILES	IC50 [1, 4] [nM]	AUC ([2]; plasma 0.5-6 h post-dosing) [µM·h]	Ki ([3]; read-out: Ki) [nM]	other results
COc1ccc2c(c1)C(=O)N(C[C@@]1(c3cc4nc(N5CCC[C@@H](O)C5)ccc4o3)NC(=O)NC1=O)C2 [Compound 2170]	189	0.414		Ki ([3]; Ki): 0.415 nM
COc1ccc2c(c1F)C(=O)N(C[C@@]1(c3cc4nc(-c5ccncc5)ccc4o3)NC(=O)NC1=O)C2 [Compound 2122]	426	8.18		Ki ([3]; Ki): 0.58 nM
COc1ccc2c(c1F)C(=O)N(C[C@@]1(c3cc4nc(N5CCC(OC)(OC)CC5)ccc4o3)NC(=O)NC1=O)C2 [Compound 1715]			2.79	IC50 [1, 5]: 480 nM; AUC ([2]; plasma 0.5-6 h): 0.199 µM·h
COc1ccc2c(c1)C(=O)N(C[C@@]1(c3cc4cnc(-c5cn[nH]c5)cc4o3)NC(=O)NC1=O)C2 [Compound 2286]			0.566	IC50 [1, 6]: 184 nM; AUC [2, 7]: 0.046 µM·h
COc1ccc2c(c1)C(=O)N(C[C@@]1(c3cc4nc(N5CCN(C(C)=O)CC5)ccc4o3)NC(=O)NC1=O)C2 [Compound 2400]			0.585	IC50 [1, 6]: 280 nM; AUC [2, 7]: 0.439 µM·h
COc1ccc2c(c1)C(=O)N(C[C@@]1(c3cc4nc(N(c5cccnc5)C5CCNCC5)ccc4o3)NC(=O)NC1=O)C2 [Compound 2145]	174	0.086		Ki ([3]; Ki): 0.547 nM
COc1ccc2c(c1)C(=O)N(C[C@@]1(c3cc4nc(Nc5ncccn5)ccc4o3)NC(=O)NC1=O)C2 [Compound 2169]	920	4.83	0.576	
COc1ccc2c(c1)C(=O)N(C[C@@]1(c3cc4nc(N5CCCCC5)ccc4o3)NC(=O)NC1=O)C2 [Compound 2168]	885	3.53	0.34	
COc1ccc2c(c1F)C(=O)N(C[C@@]1(c3cc4nc(N5CCN(C6CC6)CC5)ccc4o3)NC(=O)NC1=O)C2 [Compound 1711]			0.5	IC50 [1, 5]: 113 nM; AUC ([2]; plasma 0.5-6 h): 5.09 µM·h
CCC1(c2cc(F)c3oc([C@]4(CN5Cc6ccc(OC)c(F)c6C5=O)NC(=O)NC4=O)cc3c2)NC(=O)NC1=O (stereo partly drawn) [Compound 1305]			0.77	IC50 [1, 5]: 239 nM; AUC ([2]; plasma 0.5-6 h): 1.87 µM·h
COc1ccc2c(c1F)C(=O)N(C[C@@]1(c3cc4cc5c(c(C)c4o3)C(=O)NC5)NC(=O)NC1=O)C2 [Compound 2497]			0.29	IC50 [1, 6]: 673 nM; AUC [2, 7]: 1.05 µM·h
COCCN1CCc2oc([C@]3(CN4Cc5ccc(OC)cc5C4=O)NC(=O)NC3=O)cc2C1 [Compound 2267]	1040	0.278	5.27	
COc1ccc2c(c1)C(=O)N(C[C@@]1(c3cc4cc(-c5ccncc5)cnc4o3)NC(=O)NC1=O)C2 [Compound 2255]	396	0.527	0.523	
COc1ccc2c(c1)C(=O)N(C[C@@]1(c3cc4nc(-c5cncnc5)ccc4o3)NC(=O)NC1=O)C2 [Compound 2147]	1080	2.19	0.299	
COc1ccc2c(c1)C(=O)N(C[C@@]1(c3cc4c(C)nc(C)cc4o3)NC(=O)NC1=O)C2 [Compound 2257]	676	4.23	0.53	
COc1ccc2c(c1)C(=O)N(C[C@@]1(c3cc4cnc(-c5cccnc5)cc4o3)NC(=O)NC1=O)C2 [Compound 2232]	1100	2.22	0.538	
COc1ccc2c(c1)C(=O)N(C[C@@]1(c3cc4cc(Cl)ncc4o3)NC(=O)NC1=O)C2 [Compound 2300]			0.49	IC50 [1, 6]: 902 nM; AUC [2, 7]: 22.7 µM·h
CCN1CCN(c2ccc3oc([C@]4(CN5Cc6ccc(OC)c(F)c6C5=O)NC(=O)NC4=O)cc3n2)CC1 [Compound 1705]			0.82	IC50 [1, 5]: 137 nM; AUC ([2]; plasma 0.5-6 h): 1.2 µM·h
COc1ccc2c(c1)C(=O)N(C[C@@]1(c3cc4nc(N5CC[C@H](O)C5=O)ccc4o3)NC(=O)NC1=O)C2 [Compound 2159]	331	0.527	0.935	

SMILES	IC50 [1, 4] [nM]	AUC ([2]; plasma 0.5-6 h post-dosing) [µM·h]	Ki ([3]; read-out: Ki) [nM]	other results
CC[C@@H]1CN(c2ccc3oc([C@]4(CN5Cc6ccc(OC)cc6C5=O)NC(=O)NC4=O)cc3n2)CCN1 [Compound 2124]	270	0.014	1.09	
COc1ccc2c(c1)C(=O)N(C[C@@]1(c3cc4cnc(C)cc4o3)NC(=O)NC1=O)C2 [Compound 2258]	345	19.1	0.366	
COc1ccc2c(c1F)C(=O)N(C[C@@]1(c3cc4c(C)nccc4o3)NC(=O)NC1=O)C2 [Compound 2204]	115	0.983	0.34	
COc1ccc2c(c1)C(=O)N(C[C@@]1(c3cc4nc(NC5CCN(C)CC5)ccc4o3)NC(=O)NC1=O)C2 [Compound 2141]	381	2.71	0.599	
COc1ccc2c(c1)C(=O)N(C[C@@]1(c3cc4cc(-c5csc(N)n5)ccc4o3)NC(=O)NC1=O)C2 [Compound 2220]	722	0.165	0.243	
CCc1nccc2oc([C@]3(CN4Cc5ccc(OC)cc5C4=O)NC(=O)NC3=O)cc12 [Compound 2289]			0.25	IC50 [1, 6]: 358 nM; AUC [2, 7]: 3.56 µM·h
COc1ccc2c(c1)C(=O)N(C[C@@]1(c3cc4nc(C#N)ccc4o3)NC(=O)NC1=O)C2 [Compound 2473]			0.32	IC50 [1, 6]: 564 nM; AUC [2, 7]: 5.69 µM·h
COc1ccc2c(c1)C(=O)N(C[C@@]1(c3cc4c5c(ccc4o3)CNC5=O)NC(=O)NC1=O)C2 [Compound 2503]			0.36	IC50 [1, 6]: 170 nM; AUC [2, 7]: 0.304 µM·h
COc1ccc2c(c1)C(=O)N(C[C@@]1(c3cc4c5c(ccc4o3)C(=O)NC5)NC(=O)NC1=O)C2 [Compound 2504]			0.45	IC50 [1, 6]: 189 nM; AUC [2, 7]: 0.181 µM·h
COc1ccc2c(c1)C(=O)N(C[C@@]1(c3cc4nc(NS(=O)(=O)C5CC5)ccc4o3)NC(=O)NC1=O)C2 [Compound 1938]			0.58	IC50 [1, 5]: 518 nM; AUC ([2]; plasma 0.5-6 h): 0.015 µM·h
COc1ccc2c(c1)C(=O)N(C[C@@]1(c3cn4cccnc4n3)NC(=O)NC1=O)C2 [Compound 750]				IC50 [1, 5]: 705 nM; AUC ([2]; plasma 0.5-6 h): 0.32 µM·h; Ki ([3]; Ki): 1.91 nM
CCNC(=O)N1CCc2oc([C@]3(CN4Cc5ccc(OC)cc5C4=O)NC(=O)NC3=O)cc2C1 [Compound 320]			0.4	IC50 [1, 5]: 309 nM; AUC ([2]; plasma 0.5-6 h): 0.011 µM·h
COc1ccc2c(c1)C(=O)N(C[C@@]1(c3cc4cnc(-c5cccc(C#N)c5)cc4o3)NC(=O)NC1=O)C2 [Compound 2431]			0.8	IC50 ([1]; human whole blood diluted 1:1, LPS stimulated): 8420 nM; RR AUC (rapid rat AUC, rrAUC) ([2]; blood collected 0.5-6 h post-dosing): 10.648 µM·h
COc1ccc2c(c1)C(=O)N(C[C@@]1(c3cc4nc(C(N)=O)ccc4o3)NC(=O)NC1=O)C2 [Compound 1924]			0.55	IC50 [1, 5]: 200 nM; AUC ([2]; plasma 0.5-6 h): 0.113 µM·h
COc1ccc2c(c1F)C(=O)N(C[C@@]1(c3cc4ncc(C(N)=O)cc4o3)NC(=O)NC1=O)C2 [Compound 1908]			0.42	IC50 [1, 5]: 136 nM; AUC ([2]; plasma 0.5-6 h): 0.094 µM·h
COc1ccc2c(c1)C(=O)N(C[C@@]1(c3cc4ccc(C(=O)N5CCNCC5)cc4o3)NC(=O)NC1=O)C2 [Compound 2424]			0.98	IC50 [1, 6]: 702 nM; AUC [2, 7]: 0.013 µM·h
CCC1(c2ccc3oc([C@]4(CN5Cc6ccc(OC)c(F)c6C5=O)NC(=O)NC4=O)cc3c2)NC(=O)NC1=O (stereo partly drawn) [Compound 1307]			0.81	IC50 [1, 5]: 204 nM; AUC ([2]; plasma 0.5-6 h): 2.01 µM·h
COc1ccc2c(c1)C(=O)N(C[C@@]1(c3cc4nc(NC(=O)c5ccncc5)ccc4o3)NC(=O)NC1=O)C2 [Compound 2135]	2780	0.56	1.2	
